Experimental data reported in patent publication US20230322854A1, “HUNTINGTIN-RELATED PEPTIDE AGENTS AND USES THEREOF” (UNIVERSITY OF SOUTHERN CALIFORNIA, priority 2020, published 2023).
“Also recorded” adds a separate entry of the source. No end group written: not given here. spin label = not defined here

Columns and labels:
[1] = tested on: unbundled Huntingtin fibrils (exon 1); experiment: Radioactive binding assay, immobilized unbundled Huntingtin fibrils; details: for effect on HD8 binding affinity of constant region / N-terminal mutation: versus HD8 with GSGTSGSS, HD8 MA versus HD8 MM; for binding to Htt-fibrils: radiolabeled mRNA-peptide fusions, fibrils immobilized on beads; for effect on binding of mutating the HD8 residue to Alanine: Alanine scan of HD8; for effect on binding of mutating the HD1 residue to Alanine: Alanine scan of HD1; for effect on HD1 binding of constant region / N-terminal mutation: HD 1A versus HD1 with GSGTSGSS, HD1 MA versus HD1 MM
Source text: Messenger RNA (mRNA) display (described in (Roberts, et al. (1997) Proc Natl Acad Sci USA 94: 12297-302, Takahashi, et al. (2003) Trends Biochem Sci 28: 159-65); FIG. 2) was used to engineer peptide agents that bind to unbundled fibrils of Huntingtin exon 1. To do this, unbundled Huntingtin fibrils were generated by mixing biotinylated Huntingtin protein (exon 1; FIG. 1) with non-biotinylated exon 1 Huntingtin protein at a ratio of 1:20 (˜5% biotinylated Huntingtin). These fibrils were then immobilized on Neutravidin agarose (Thermo Fisher) or Streptavidin ultralink beads (Thermo Fisher) via the attached biotin. A MX9 (where X is any of the 20 natural amino acids) mRNA display library was generated using published procedures (Takahashi, et al. (2009) Methods Mol Biol 535: 293-314) and incubated with immobilized fibrils. Non-binding sequences were washed away and the remaining fibril binding peptides were amplified via RT-PCR. This process was repeated seven times.
(§1) The binding of the peptide library was determined using a radioactive binding assay. In this assay, peptides were radiolabeled by translating the mRNA coding for these peptides in the presence of ^35S-methionine using rabbit reticulocyte lysate (Jackson, et al. (1983) Methods Enzymol 96: 50-74). These peptides were translated in an mRNA display format and were thus linked to their encoding mRNA, as described above. After purification by dT chromatography, the radiolabeled peptides were incubated with Huntingtin fibrils immobilized on Neutravidin Agarose or Streptavidin Ultralink beads. The beads were then filtered through a Spin X column (Corning) to separate the supernatant and beads, then washed to remove unbound sequences. The supernatant, washes, and beads were all counted in a scintillation counter to determine the counts in each sample. The percent bound was determined by dividing the counts on the beads with the total counts (beads+washes+supernatant).

[2] = Radioactive binding assay, beads without target (no target control); details: radiolabeled peptide
Protocol: as §1

Httex1 aggregates = experiment: Labeling of Httex1 aggregates in retinal sections of Huntington mouse models; details: R6/1 (34 weeks) and zQ175KI (48 weeks) mice, 2 micromolar
Source text: FIG. 28 presents fluorescence microscopy pictures showing that HD8-Alexa488 labels aggregated Httex1 in retina sections from two different mouse model of Huntington disease. Left panels show nuclear stain that labels all cells. Right panels show signal from HD8-Alexa488. Top panels show a retinal section from a R6/1 mouse, and bottom panels show a retinal section from a zQ175KI mouse.
Left panels show nuclear stain that labels all cells (A1 and B1), and right panels show signal from HD8-SP10-HD1-fluorescein (A2 and B2). Top panels are higher magnification that show the ganglion cell layer of the retina, and the bottom panels are lower magnification micrographs that show all retinal layers. Labeling of all retinal layers is seen when the HD peptides are dimerized. The phase contrast panel to the left of the bottom panels show the corresponding retinal layers: ONL: outer nuclear layer that contain rod and cone photoreceptor cells, INL: inner nuclear layer that contains cell bodies from horizontal cells, bipolar cells, amacrine cells and Müller cells, GCL: ganglion cell layer.
To see whether HD peptides bind Httex1 aggregates formed in vivo, we used tissues from two different Huntington mouse models, R6/1 (34 weeks old) and zQ175KI (48 weeks). FIG. 28 show retinal sections from these mice incubated with 2 micromolar of HD8 conjugated with Alexa488 at its carboxyl terminus.
HD8-HD1-fluorescein (0.1 micromolar) was also used on retinal sections from 34-week-old R6/1 mice (FIG. 29). […] In addition, weaker signal from intranuclear aggregates was also observed. Further, the signal can now be detected in all layers of the retina where the nuclei reside.

[3] = molecular target: unbundled fibrils of Huntingtin exon 1 (about 5% biotinylated), immobilized on beads (UniProt P42858); experiment: EPR, spin-labeled peptide titrated onto 15 µM fibrils
[4] = molecular target: unbundled fibrils of Huntingtin exon 1 (about 5% biotinylated), immobilized on beads (UniProt P42858); experiment: alanine scan of the constant region, radioactive binding assay

## MWQMMNGMSQA [HD 8A]
[1]
  effect on HD8 binding affinity of constant region / N-terminal mutation: modest loss in binding affinity

## MRWSMSYSWA (MRWSMSYSWAGSGTSGSS) [HD3]
[1]
  binding to Htt-fibrils: demonstrated binding to Htt-fibrils
[2]
  binding to beads without target: little to no binding to beads without target

## MDLWPMWESW (MDLWPMWESWGSGTSGSS) [HD7]
[1]
  binding to Htt-fibrils: good binding to Htt-fibrils
[2]
  binding to beads without target: little to no binding to beads without target

## MWQMMNGASQ [M8]
[1]
  effect on binding of mutating the HD8 residue to Alanine: modest losses

## MWAMMNGMSQ [Q3]
[1]
  effect on binding of mutating the HD8 residue to Alanine: large losses of binding

## MDWWPMWPSA [L10]
[1]
  effect on binding of mutating the HD1 residue to Alanine: decrease binding

## MWQMMNGMSQG [HD 8G]
[1]
  effect on HD8 binding affinity of constant region / N-terminal mutation: loss could be recovered

## MFMMMWMSLT (MFMMMWMSLTGSGTSGSS) [HD4]
[1]
  binding to Htt-fibrils: demonstrated binding to Htt-fibrils
[2]
  binding to beads without target: little to no binding to beads without target

## MAQMMNGMSQ [W2]
[1]
  effect on binding of mutating the HD8 residue to Alanine: modest losses

## MWQMMNGMSQGS [HD 8GS]
[1]
  effect on HD8 binding affinity of constant region / N-terminal mutation: loss could be recovered

## MAWQMMNGMSQ GSGTSGSS (MAWQMMNGMSQGSGTSGSS) [HD8 MA]
[1]
  effect on HD8 binding affinity of constant region / N-terminal mutation: decrease in binding

## HD8-Alexa488: HD8 conjugated with Alexa488 at its carboxyl terminus (MWQMMNGMSQ-Alexa488)
Httex1 aggregates
  labeling of retinal sections: Specific staining was observed in the ganglion cell layer of the retina in both mouse models
Httex1 aggregates; listed as HD8 conjugated with Alexa488
  labeling of retinal sections: observed mostly in the ganglion cell layer

## HD1-SP10-HD8-SP10-HD1: trimeric peptide agent of HD1, HD8, HD1 with spacers (MDWWPMWPSLGSGTSGSSGSMWQMMNGMSQGSGTSGSSGSMDWWPMWPSL)
[1]; 0.7 μg protein (about 50 pmol as monomer)
  binding under lower fibril conditions: better performing

## MDWWAMWPSL [P5]
[1]
  effect on binding of mutating the HD1 residue to Alanine: decrease binding

## HD1 MA: HD1 with additional Met at the N-terminus, Met1 changed to Ala (MADWWPMWPSLGSGTSGSS)
[1]
  effect on HD1 binding of constant region / N-terminal mutation: significantly decreases binding

## MDWWPLWPSL (MDWWPLWPSLGSGTSGSS) [HD1 M6L]
[1]; HD1 Met mutants versus HD1
  effect on binding of Met substitution in HD1: no effect on binding

## MDAWPMWPSL [W3]
[1]
  effect on binding of mutating the HD1 residue to Alanine: decrease binding

## MWQMMNAMSQ [G7]
[1]
  effect on binding of mutating the HD8 residue to Alanine: modest losses

## HD8SP10-HD1: dimeric peptide agent of HD8 and HD1 joined by a 10 amino acid spacer (MWQMMNGMSQGSGTSGSSGSMDWWPMWPSLGSGTSGSS)
[1]; 1 M, 2 M or 3 M urea versus buffer only (TBST)
  binding in the presence of urea: decreased binding that is approximately proportional to the amount of urea added

## HD 1A: HD1 with substitution of the GSGTSGSS constant region with Ala (MDWWPMWPSLA)
[1]
  effect on HD1 binding of constant region / N-terminal mutation: little effect on binding affinity

## MWMIQMPGYQ (MWMIQMPGYQGSGTSGSS) [HD2]
[1]
  binding to Htt-fibrils: demonstrated binding to Htt-fibrils
[2]
  binding to beads without target: little to no binding to beads without target

## MDWWPMWASL [P8]
[1]
  effect on binding of mutating the HD1 residue to Alanine: decrease binding

## MDWWPAWPSL [M6]
[1]
  effect on binding of mutating the HD1 residue to Alanine: decrease binding; also recorded: reduced but did not abolish

## MWQMANGMSQ [M5]
[1]
  effect on binding of mutating the HD8 residue to Alanine: modest losses

## MQMWTMWEPW (MQMWTMWEPWGSGTSGSS) [HD 6]
[1]
  binding to Htt-fibrils: good binding to Htt-fibrils
[2]
  binding to beads without target: little to no binding to beads without target

## MFFVLSWTPL [HD5]
[2]
  binding to beads without target: high non-specific binding to beads without target

B1: spin-labeled synthetic HD1 (peptide)
peptide: MDWWPMWPSLC(spin label)
modifications: reading uncertain
[3]
  stoichiometry of the complex (ratio at saturation) (ratio (printed 1:3)): 0.33

B2: HD1 S12A (peptide)
peptide: MDWWPMWPSLGAGTSGSS
modifications: also: 35S-methionine
[4]
  percent decrease in HD1 binding: 20%

B3: HD1 G11A (peptide)
peptide: MDWWPMWPSLASGTSGSS
modifications: also: 35S-methionine
[4]
  percent decrease in HD1 binding: 20%

B4: HD1 G13A (peptide)
peptide: MDWWPMWPSLGSATSGSS
modifications: also: 35S-methionine
[4]
  percent decrease in HD1 binding: 20%

B5: HD8-SP10-HD1-SP10-HD8-SP10-HD1: tetrameric HD8/HD1 molecule with spacers (peptide)
peptide: MWQMMNGMSQGSGTSGSSGSMDWWPMWPSLGSGTSGSSGSMWQMMNGMSQGSGTSGSSGSMDWWPMWPSL
[1]; serum diluted 1:2, 1:5 or 1:10 with buffer (TBST)
  binding to Htt-fibrils in the presence of serum: serum can partially inhibit binding

B6: spin-labeled synthetic HD8 (peptide)
peptide: MWQMMNGMSQC(spin label)
modifications: reading uncertain
[3]
  stoichiometry of the complex (ratio) (ratio (printed 1:1)): 1
